Test results reported in US10681909B2, “Herbicidal triazoles” (FMC Corporation, priority 2014, dated 2020).

How the values were obtained:
corn = assay: Test A postemergence; assay type: in vivo, Zea mays; conditions: 0 to 100 scale (0 no effect, 100 complete control), approx. 10 d
How it was run: (§1)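 For preemergence, seeds were sown in a loam soil-sand blend and given a directed soil spray of test chemical in a non-phytotoxic solvent mixture with surfactant. For postemergence, plants in pots of the same blend were sprayed with the same formulation at the one- to two-leaf stage, 2 to 10 cm tall.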

velvetleaf = assay: Test C postemergence; assay type: in vivo, Abutilon theophrasti
How it was run: (§2)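 Pre: seeded into loam/sand, sprayed same time. Post: plants in peat moss–vermiculite mix with starter nutrients and dolomitic limestone, treated at 1- to 4-leaf stage (2 to 18 cm). Formulation: non-phytotoxic solvent blend plus surfactant.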

kochia = assay: Test C postemergence; assay type: in vivo, Kochia scoparia
How it was run: as §2

ragweed = assay: Test C postemergence; assay type: in vivo, Ambrosia elatior
How it was run: as §2

oat, wild = assay: Test C postemergence; assay type: in vivo, Avena fatua
How it was run: as §2

foxtail, giant [1] = assay: Test C postemergence; assay type: in vivo, Setaria faberii
How it was run: as §2

crabgrass, large = assay: Test C postemergence; assay type: in vivo, Digitaria sanguinalis
How it was run: as §2

pigweed [2] = assay: Test A postemergence; assay type: in vivo, Amaranthus retroflexus; conditions: 0 to 100 scale (0 no effect, 100 complete control), approx. 10 d
How it was run: as §1

barnyardgrass [3] = assay: Test B flooded paddy test; assay type: in vivo, Echinochloa crus-galli; conditions: 250 g ai/ha, applied to paddy water at 2-leaf stage, visual rating after 13 to 15 d, scale 0 (no effect) to 100 (complete control)
How it was run: (§3)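 Pots were flooded to 3 cm above the soil at treatment, and compounds were applied directly into the paddy water. That depth was held throughout. After 13 to 15 d in a greenhouse, plants were rated visually against untreated controls.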

rice = assay: Test B flooded paddy test; assay type: in vivo, Oryza sativa; conditions: 250 g ai/ha, applied to paddy water at 2-leaf stage, visual rating after 13 to 15 d, scale 0 (no effect) to 100 (complete control)
How it was run: as §3

pigweed [4] = assay: Test C postemergence; assay type: in vivo, Amaranthus retroflexus
How it was run: as §2

chickweed = assay: Test C postemergence; assay type: in vivo, Stellaria media
How it was run: as §2

barnyardgrass [5] = assay: Test A postemergence; assay type: in vivo, Echinochloa crus-galli; conditions: 0 to 100 scale (0 no effect, 100 complete control), approx. 10 d
How it was run: as §1

nutsedge, yellow = assay: Test C postemergence; assay type: in vivo, Cyperus esculentus
How it was run: as §2

wheat (winter wheat) = assay: Test C postemergence; assay type: in vivo, Triticum aestivum
How it was run: as §2

lambsquarters = assay: Test C postemergence; assay type: in vivo, Chenopodium album
How it was run: as §2

oilseed rape = assay: Test C postemergence; assay type: in vivo, Brassica napus
How it was run: as §2

morningglory = assay: Test C postemergence; assay type: in vivo, Ipomoea coccinea
How it was run: as §2

johnsongrass = assay: Test C postemergence; assay type: in vivo, Sorghum halepense
How it was run: as §2

foxtail, giant [6] = assay: Test A preemergence; assay type: in vivo, Setaria faberii; conditions: 0 to 100 scale (0 no effect, 100 complete control)
How it was run: as §1

**Q.** Which results are given for `Fc1ccc(-c2nc(OCC(F)(F)F)n(Cc3ccnc(C(F)(F)F)c3)n2)cc1` [Compound 30]?
**A.** Plant response rating, Corn (corn; 125 g ai/ha): 40; Plant response rating, Corn (corn; 500 g ai/ha): 50; Plant response rating (scale of 0 to 100 where 0 is no effect and 100 is complete control) (velvetleaf; 31 g ai/ha): 55; Plant response rating (scale of 0 to 100 where 0 is no effect and 100 is complete control) (velvetleaf; 62 g ai/ha): 60; Plant response rating (scale of 0 to 100 where 0 is no effect and 100 is complete control) (velvetleaf; 125 g ai/ha): 80; Plant response rating (scale of 0 to 100 where 0 is no effect and 100 is complete control) (velvetleaf; 250 g ai/ha): 90; Plant response rating (scale of 0 to 100 where 0 is no effect and 100 is complete control) (kochia; 31 g ai/ha): 100; Plant response rating (scale of 0 to 100 where 0 is no effect and 100 is complete control) (kochia; 62 g ai/ha): 100; Plant response rating (scale of 0 to 100 where 0 is no effect and 100 is complete control) (kochia; 125 g ai/ha): 100; Plant response rating (scale of 0 to 100 where 0 is no effect and 100 is complete control) (kochia; 250 g ai/ha): 100; Plant response rating (scale of 0 to 100 where 0 is no effect and 100 is complete control) (ragweed; 31 g ai/ha): 65; Plant response rating (scale of 0 to 100 where 0 is no effect and 100 is complete control) (ragweed; 62 g ai/ha): 55; Plant response rating (scale of 0 to 100 where 0 is no effect and 100 is complete control) (ragweed; 125 g ai/ha): 65; Plant response rating (scale of 0 to 100 where 0 is no effect and 100 is complete control) (ragweed; 250 g ai/ha): 85; Plant response rating (scale of 0 to 100 where 0 is no effect and 100 is complete control) (oat, wild; 31 g ai/ha): 25; Plant response rating (scale of 0 to 100 where 0 is no effect and 100 is complete control) (oat, wild; 62 g ai/ha): 15; Plant response rating (scale of 0 to 100 where 0 is no effect and 100 is complete control) (oat, wild; 125 g ai/ha): 30; Plant response rating (scale of 0 to 100 where 0 is no effect and 100 is complete control) (oat, wild; 250 g ai/ha): 45; Plant response rating (scale of 0 to 100 where 0 is no effect and 100 is complete control) (foxtail, giant [1]; 31 g ai/ha): 5; Plant response rating (scale of 0 to 100 where 0 is no effect and 100 is complete control) (foxtail, giant [1]; 62 g ai/ha): 10; Plant response rating (scale of 0 to 100 where 0 is no effect and 100 is complete control) (foxtail, giant [1]; 125 g ai/ha): 25; Plant response rating (scale of 0 to 100 where 0 is no effect and 100 is complete control) (foxtail, giant [1]; 250 g ai/ha): 25; Plant response rating (scale of 0 to 100 where 0 is no effect and 100 is complete control) (crabgrass, large; 31 g ai/ha): 20; Plant response rating (scale of 0 to 100 where 0 is no effect and 100 is complete control) (crabgrass, large; 62 g ai/ha): 15; Plant response rating (scale of 0 to 100 where 0 is no effect and 100 is complete control) (crabgrass, large; 125 g ai/ha): 35; Plant response rating (scale of 0 to 100 where 0 is no effect and 100 is complete control) (crabgrass, large; 250 g ai/ha): 60; Plant response rating, Pigweed (pigweed [2]; 125 g ai/ha): 100; Plant response rating, Pigweed (pigweed [2]; 500 g ai/ha): 100; Plant response rating, Barnyardgrass, Flood (barnyardgrass [3]): 30; Plant response rating, Rice, Flood (rice): 30; Plant response rating (scale of 0 to 100 where 0 is no effect and 100 is complete control) (pigweed [4]; 31 g ai/ha): 95; Plant response rating (scale of 0 to 100 where 0 is no effect and 100 is complete control) (pigweed [4]; 62 g ai/ha): 95; Plant response rating (scale of 0 to 100 where 0 is no effect and 100 is complete control) (pigweed [4]; 125 g ai/ha): 98; Plant response rating (scale of 0 to 100 where 0 is no effect and 100 is complete control) (pigweed [4]; 250 g ai/ha): 98; Plant response rating (scale of 0 to 100 where 0 is no effect and 100 is complete control) (chickweed; 31 g ai/ha): 95; Plant response rating (scale of 0 to 100 where 0 is no effect and 100 is complete control) (chickweed; 62 g ai/ha): 95; Plant response rating (scale of 0 to 100 where 0 is no effect and 100 is complete control) (chickweed; 125 g ai/ha): 100; Plant response rating (scale of 0 to 100 where 0 is no effect and 100 is complete control) (chickweed; 250 g ai/ha): 100; Plant response rating, Barnyardgrass (barnyardgrass [5]; 125 g ai/ha): 80; Plant response rating, Barnyardgrass (barnyardgrass [5]; 500 g ai/ha): 90; Plant response rating (scale of 0 to 100 where 0 is no effect and 100 is complete control) (nutsedge, yellow; 31 g ai/ha): 5; Plant response rating (scale of 0 to 100 where 0 is no effect and 100 is complete control) (nutsedge, yellow; 62 g ai/ha): 5; Plant response rating (scale of 0 to 100 where 0 is no effect and 100 is complete control) (nutsedge, yellow; 125 g ai/ha): 10; Plant response rating (scale of 0 to 100 where 0 is no effect and 100 is complete control) (nutsedge, yellow; 250 g ai/ha): 15; Plant response rating (scale of 0 to 100 where 0 is no effect and 100 is complete control) (wheat (winter wheat); 31 g ai/ha): 5; Plant response rating (scale of 0 to 100 where 0 is no effect and 100 is complete control) (wheat (winter wheat); 62 g ai/ha): 5; Plant response rating (scale of 0 to 100 where 0 is no effect and 100 is complete control) (wheat (winter wheat); 125 g ai/ha): 15; Plant response rating (scale of 0 to 100 where 0 is no effect and 100 is complete control) (wheat (winter wheat); 250 g ai/ha): 20; Plant response rating (scale of 0 to 100 where 0 is no effect and 100 is complete control) (lambsquarters; 31 g ai/ha): 70; Plant response rating (scale of 0 to 100 where 0 is no effect and 100 is complete control) (lambsquarters; 62 g ai/ha): 85; Plant response rating (scale of 0 to 100 where 0 is no effect and 100 is complete control) (lambsquarters; 125 g ai/ha): 95; Plant response rating (scale of 0 to 100 where 0 is no effect and 100 is complete control) (lambsquarters; 250 g ai/ha): 95; Plant response rating (scale of 0 to 100 where 0 is no effect and 100 is complete control) (oilseed rape; Oilsee Rape, 250 g ai/ha): 95; Plant response rating (scale of 0 to 100 where 0 is no effect and 100 is complete control) (oilseed rape; Oilseed Rape, 31 g ai/ha): 35; Plant response rating (scale of 0 to 100 where 0 is no effect and 100 is complete control) (oilseed rape; Oilseed Rape, 62 g ai/ha): 80; Plant response rating (scale of 0 to 100 where 0 is no effect and 100 is complete control) (oilseed rape; Oilseed Rape, 125 g ai/ha): 95; Plant response rating (scale of 0 to 100 where 0 is no effect and 100 is complete control) (morningglory; 31 g ai/ha): 80; Plant response rating (scale of 0 to 100 where 0 is no effect and 100 is complete control) (morningglory; 62 g ai/ha): 70; Plant response rating (scale of 0 to 100 where 0 is no effect and 100 is complete control) (morningglory; 125 g ai/ha): 80; Plant response rating (scale of 0 to 100 where 0 is no effect and 100 is complete control) (morningglory; 250 g ai/ha): 100; Plant response rating (scale of 0 to 100 where 0 is no effect and 100 is complete control) (johnsongrass; 31 g ai/ha): 30; Plant response rating (scale of 0 to 100 where 0 is no effect and 100 is complete control) (johnsongrass; 62 g ai/ha): 100; Plant response rating (scale of 0 to 100 where 0 is no effect and 100 is complete control) (johnsongrass; 125 g ai/ha): 35; Plant response rating (scale of 0 to 100 where 0 is no effect and 100 is complete control) (johnsongrass; 250 g ai/ha): 30; Plant response rating, Foxtail, Giant (foxtail, giant [6]; 125 g ai/ha): 100; Plant response rating, Foxtail, Giant (foxtail, giant [6]; 500 g ai/ha, approx. 10 d): 100
